The results in this text go back to US6451353B1 (priority 1997, dated 2002).

In one series the test system is Tumor. As to the kind of experiment: Tumor-inhibiting rates of extracts obtained with different solvents. The format is in vivo, mice. To be noted: 5-FU 10 mg/kg.
Another series has as its system Lewis lung carcinoma. As to the kind of experiment: Inhibiting effect on Lewis lung carcinoma. Type of series: in vivo, mice. To be noted: Table 9; 5-Fu 5 mg/kg/d i.p. × 10. The procedure: Healthy C57BL/6N mice with a body weight of 18-22 g. each were obtained from the breeding center of Sichuan Institute of Antibiotic Industry, Chengdu, Sichuan Province, P. R. China. Both male and female mice were used in the experiment. Lewis lung carcinoma was obtained from the Division of Pharmacology, Sichuan Institute of Antibiotic Industry, Chengdu, Sichuan Province, P. R. China. […] The experiment was carried out in vivo according to “Procedures of in vivo Screening of Antineoplastic Drugs” established in P. R. China in 1978.

Series [1] relates to Sarcoma 180. As to the kind of experiment: Combination with 5-fluorouracil and 60Co gamma rays on mouse sarcoma 180. To be noted: Kunming mice, Fagopyrum Composition 100 mg/kg p.o. × 10, 5-FU 5 mg/kg i.p. × 10, γ 300 rad × 1. Type of series: in vivo. The method, then: 60 Kunming mice were obtained from the breeding center of Chengdu Institute of Biological Products, the Ministry of Health, Chengdu, Sichuan Province, P. R. China.
Sarcoma 180 was obtained from the Division of Pharmacology, Sichuan Institute of Antibiotic Industry, Chengdu, Sichuan Province, P. R. China. The tumor line had been passed on several times in Kunming mice.
The drug was prepared by Nantong Pharmaceuticals, Nantong, Jiangsu Province, P. R. China.
Inoculation of tumor line and evaluation of therapeutic efficacy were performed according to “Procedures of in vivo Screening of Antineoplastic Drugs” established in P. R. China in 1978.
Sixty mice were divided into 6 groups, 10 mice for each group. Group 1 was the control group wherein the mice were treated only by saline. Groups 2 to 6 were treatment groups using different therapies. […] Group 3 was treated with 5-Fluorouracil. Group 4 was treated with ^60Co irradiation. […] Result of each group was then calculated and compared.

Series [2] relates to Sarcoma 180. As to the kind of experiment: Inhibiting effect on mouse sarcoma 180. The format is in vivo. To be noted: ICR mice; 5-Fu 5 mg/kg/d i.p. × 12. The procedure:
Healthy Kunming and ICR mice with a body weight of 18-22 g. each were obtained from the breeding center of Sichuan Institute of Antibiotic Industry, Chengdu, Sichuan Province, P. R. China. Both male and female mice were used in the experiment. Sarcoma 180 was obtained from the Division of Pharmacology, Sichuan Institute of Antibiotic Industry, Chengdu, Sichuan Province, P. R. China. […] The experiment was carried out in vivo according to “Procedures of in vivo Screening of Antineoplastic Drugs” established in P. R. China in 1978.

The test system of another series is cervical carcinoma U14. As to the kind of experiment: Inhibiting effect on mouse cervical carcinoma U14. Type of series: in vivo. To be noted: Table 13, ICR mice; 5-Fu 5 mg/kg/d i.p. × 9. The method, then:
Healthy Kunming and ICR mice with a body weight of 18-22 g. each were obtained from the breeding center of Sichuan Institute of Antibiotic Industry, Chengdu, Sichuan Province, P. R. China. Both male and female mice were used in the experiment. Uterine carcinoma U14 was obtained from the Division of Pharmacology, Sichuan Institute of Antibiotic Industry, Chengdu, Sichuan Province, P. R. China. […] The experiment was carried out in vivo according to “Procedures of in vivo Screening of Antineoplastic Drugs” established in P. R. China in 1978.

On to `O=c1[nH]cc(F)c(=O)[nH]1` [5-FU, 5-Fluorouracil], for which the “Tumor-inhibiting Rate” value in the series on Tumor turned out to be 31.37%. The “Average Tumor Weight (x ± SD)” value in the series with Lewis lung carcinoma is reported as 0.74 ± 0.49 g; in the series with Sarcoma 180 [2], 0.49 ± 0.25 g; in the series on cervical carcinoma U14, 1.27 ± 0.37 g. Further, the “Change in Mean Value of Body Weight” value in the series on Lewis lung carcinoma is “+0.4 g”; with Sarcoma 180 [2], “+2.01 g”; in the series on cervical carcinoma U14 it was “+3.93 g”. Moreover, the “Tumor Inhibiting Rate” value is reported as 52.26% in the series with Lewis lung carcinoma, 47.8% in the series with Sarcoma 180 [1], 51.49% with Sarcoma 180 [2] and 35.53% in the series with cervical carcinoma U14. In addition, the “Tumor Weight” value with Sarcoma 180 [1] (saline control 1.36) is 0.71 g.
